ChEMBL document CHEMBL1157770, “Functionalized pyrazoles and pyrazolo[3,4-d]pyridazinones: Synthesis and evaluation of their phosphodiesterase 4 inhibitory activity” (Bioorg Med Chem, 2010)

molecular target: T1, Phosphodiesterase 4 (Homo sapiens, UniProt P27815+Q08499+Q07343+Q08493); assay: Inhibition of PDE4 in human U937 cells after 30 mins by electrochemiluminescence based immunoassay; type: cell-based; settings: u-937

Point of comparison: `CCOC(=O)c1nn(CC)c(=O)c2nn(Cc3ccc([N+](=O)[O-])cc3)c(C)c12`, IC50 1140 nM. Against it:
- CCOC(=O)c1nn(CC)c(=O)c2nn(-c3ccccc3C)c(C)c12 — 19-fold lower, 59 nM
- CCOC(=O)c1nn(CC)c(=O)c2nn(-c3c(Cl)cccc3Cl)c(C)c12 — 4.8-fold lower, 237 nM
- CCOC(=O)c1nn(CC)c(=O)c2nn(-c3ccccc3Cl)c(C)c12 — 36-fold lower, 32 nM
- CCOC(=O)c1nn(CC)c(=O)c2nn(-c3ccccc3)c(C)c12 — 3.8-fold lower, 300 nM
- CCOC(=O)c1nn(CC)c(=O)c2nn(Cc3ccc(C(=O)OC)cc3)c(C)c12 — within 1.5-fold, 1200 nM
- CCn1nc(C(=O)OC)c2c(C)n(-c3cccc([N+](=O)[O-])c3)nc2c1=O — 25-fold lower, 46 nM
- CCOC(=O)c1nn(CC2CC2)c(=O)c2nn(-c3ccccc3Cl)c(C)c12 — 3-fold lower, 374 nM
- CCOC(=O)c1nn(CC)c(=O)c2nn(-c3cc(C(=O)OC)ccc3C)c(C)c12 — within 1.5-fold, 876 nM
- CCCn1nc(C(=O)OCC)c2c(C)n(-c3cccc([N+](=O)[O-])c3)nc2c1=O — 16-fold lower, 72 nM
- CCOC(=O)c1nn(CC)c(=O)c2nn(-c3cccc([N+](=O)[O-])c3)c(C)c12 — 15-fold lower, 75 nM
- CCOC(=O)c1nn(CC)c(=O)c2nn(-c3cc(C(N)=O)ccc3Cl)c(C)c12 — 1.5-fold lower, 757 nM
- CCn1nc(C)c2c(C)n(-c3cccc([N+](=O)[O-])c3)nc2c1=O — 3-fold lower, 385 nM

molecular target: T1, Phosphodiesterase 4; assay: Inhibition of PDE4 in human U937 cells at 1 uM after 30 mins by electrochemiluminescence based immunoassay; type: cell-based; settings: U-937

Point of comparison: `CCn1nc(C#N)c2c(C)n(-c3ccccc3Cl)nc2c1=O`, inhibition -2%. Against it:
- CCn1nc(-c2ccncc2)c(C#N)c1/C=C/c1cccc2ccccc12 — higher, 19%
- CCn1nc(-c2ccncc2)c(C#N)c1CCc1cccc2ccccc12 — higher, 2.8%
- CCCOC(=O)c1nn(CC)c(=O)c2nn(-c3cccc([N+](=O)[O-])c3)c(C)c12 — higher, 14%
- CCOC(=O)CCn1nc(-c2ccccc2)c2c(C)n(-c3cccc([N+](=O)[O-])c3)nc2c1=O — higher, 1%
- CCn1nc(C(=O)NC)c2c(C)n(-c3cccc([N+](=O)[O-])c3)nc2c1=O — higher, 14%
- CCn1nc(-c2nnc(C)o2)c2c(C)n(-c3cccc([N+](=O)[O-])c3)nc2c1=O — higher, 48%
- CCn1nc(C(=O)Nc2c(Cl)cncc2Cl)c2c(C)n(-c3ccccc3)nc2c1=O — higher, 3%
- CCOC(=O)CCn1nc(C)c2c(C)n(-c3cccc([N+](=O)[O-])c3)nc2c1=O — higher, 4%
- Cc1nn(C)c(/C=C/c2ccccc2)c1C#N — higher, 1.3%
- CCOC(=O)c1nn(CC)c(=O)c2nn(-c3cccc(CO)c3)c(C)c12 — higher, 39%
- CCn1nc(-c2ccccc2)c(C#N)c1/C=C/c1cccc2ccccc12 — higher, 35%
- CCn1nc(COC)c2cn(-c3ccccc3Cl)nc2c1=O — higher, 65%
- Cc1nn(C)c(CCc2ccccc2)c1C#N — higher, 2.1%
- CCn1nc(-c2ccccc2)c(C#N)c1CCc1cccc2ccccc12 — lower, -3%
- CCOC(=O)Cn1nc(C)c2c(C)n(-c3cccc([N+](=O)[O-])c3)nc2c1=O — higher, 64.1%
- CCn1nc(C(=O)OC(C)C)c2c(C)n(-c3cccc([N+](=O)[O-])c3)nc2c1=O — higher, 6%
- CCn1nc(-c2ccccc2)c(C#N)c1/C=C/c1ccccc1C(=O)O — higher, 6%
- CCn1nc(C#N)c2c(C)n(-c3c(Cl)cccc3Cl)nc2c1=O — higher, 2%
- COc1ccc(CCc2c(C#N)c(-c3ccccc3)nn2C)cc1OC — higher, 14%
- CCn1nc(C(=O)O)c2c(C)n(-c3cccc([N+](=O)[O-])c3)nc2c1=O — higher, 2%
- CCn1nc(-c2ccccc2)c2c(C)n(-c3cccc([N+](=O)[O-])c3)nc2c1=O — higher, 47%
- CCn1nc(-c2ccccc2)c(C#N)c1CCc1ccccc1C(=O)O — higher, 11%
- CCn1nc(CO)c2c(C)n(-c3ccccc3Cl)nc2c1=O — lower, -4%
- CCOC(=O)Cn1nc(-c2ccccc2)c2c(C)n(-c3cccc([N+](=O)[O-])c3)nc2c1=O — higher, 1%
- CCn1nc(C(=O)N(C)C)c2c(C)n(-c3cccc([N+](=O)[O-])c3)nc2c1=O — higher, 4%
- CCN(C)C(=O)c1nn(CC)c(=O)c2nn(-c3cccc([N+](=O)[O-])c3)c(C)c12 — the same, -2%
- COCc1nn(CC2CC2)c(=O)c2nn(-c3ccccc3Cl)cc12 — higher, 19%
- CCn1nc(COC)c2c(C)n(-c3ccccc3Cl)nc2c1=O — higher, 41%

molecular target: T1, Phosphodiesterase 4; assay: Inhibition of PDE4 in human U937 cells at 10 uM after 30 mins by electrochemiluminescence based immunoassay; type: cell-based; settings: U-937

Compound `CCOC(=O)c1nn(CC)c(=O)c2nn(Cc3ccc(C#N)cc3)c(C)c12` has an inhibition of 5%.

system: PBMC; assay: Antiinflammatory activity in human PBMC assessed as inhibition of LPS-induced TNFalpha production; type: functional, cell-based; settings: not given

Point of comparison: `CCOC(=O)c1nn(CC)c(=O)c2nn(-c3cccc([N+](=O)[O-])c3)c(C)c12`, IC50 383 nM. Against it:
- CCOC(=O)c1nn(CC)c(=O)c2nn(-c3ccccc3C)c(C)c12 — 3-fold lower, 127 nM
